Reference: patent EP3936131A1, “COMPOUNDS FOR THE TREATMENT OF ZIKA” (Dompe' Farmaceutici S.P.A., priority 2020, dated 2022)

Test system: ZIKV (HS-2015-BA-01)
Test: Plaque titration assay of supernatant from ZIKV-infected Vero CCL-81 cells treated with compound
Assay type: cell-based, Zika Virus
Conditions: 30, 10 and 3 microM (AEE-788 and Olcegepant: 10 and 3 microM); MOI 0.1; two treatments 24 h apart; compared to vehicle control; values only in Figures 1 to 8
Experimental: The above compounds selected by the CADD analysis were tested in a ZIKV Vero CCL-81 cells (kidney epithelial cells from African green monkey) assay. This assay is based on viral infection of Vero cells followed by visual monitoring of cytopathic effects of the virus.
In details, the above compounds were diluted to the final concentrations of 30 microM, 10 microM and 3 microM. The final volume required for treatment was 200 microliters per well, in a total of 12 wells.
For infection of the cells, ZIKV (HS-2015-BA-01), isolated from a viremic patient with symptomatic infection in Bahia State, Brazil, in 2015, was used. The complete genome of the virus is under access KX520666 in Genbank. Viral dilutions were prepared in Multiplicity of Infection (MOI) at 0.1 according to a standardized method.
In particular, 37,9 microl of virus (6x10^7 pfu/mL) was used or a total of 25.000 microl (25 ml) RPMI-0% FBS medium
100 microliters of the viral dilution (MOI 0,1) were added to each well and incubated at 5% of CO2 at T= 37°C for 1 hour for adsorption step, swift rocking every 15'.
After discarding the supernatant, 200 microliters of diluted compounds at the different concentrations described above, or vehicle were added for each compound and left in incubation at 5% of CO2 at T= 37°C for 24 hours.
After 24 hours of the first treatment the treatment was repeated a second time, with the same concentration of each compound, and at the same conditions (5% of CO2 at T= 37°C for […]).
After 24 hours, the supernatant was collected and used to perform MTT, LDH plaque titration assays, as described above.
Vero CCL-81 cells (kidney epithelial cells from African green monkey) were seeded in 24-well plates at a density of […].
Cells were maintained in RPMI 1640 medium (Cultilab) supplemented with 10% FBS (Cultilab), 2 mM L-glutamine (Gibco) and 100U/50µg penicillin/streptomycin (Sigma-Aldrich) for 24 h at 37°C in a 5% CO2 incubator.
Serial ten-fold dilutions of viral suspension in sterile dilution tubes were prepared (10-1 up to 10-4). To this aim, tubes were filled with 450 microl of medium 0% SFB and 50 microl of the sample added on the first tube. The same procedure was repeated to obtain serial dilutions by passing 50 microliters to the next dilution and successively for the other dilutions. 300 µl of each serial dilution were added into each of the two wells of 24-well plate, maintaining two wells without infection.
The inoculated plate was incubated at 37°C for 1 hour in a 5% CO2 incubator to allow virus adsorption, swift rocking every 15'. Once discard the cell supernatant from all wells, 1 ml of 1,60% semi-solid carboxymethyl cellulose (CMC) overlay medium with 2% FBS was added to each well to limit the virus dissemination.
The plate was left 4 days at 37°C in a 5% CO2 incubator. Then cell monolayer was incubated with 1 ml of the 10% formol for a minimum 18 hours at room temperature for fixation. Once removed and fixed the overlay medium, the cell monolayer was washed in running water, stained with 1 ml of the 0.04% Violet crystal for 1 hour at room temperature, and the count of viral plaques to calculate plaque-forming unit (PFU) was conducted.

SMILES | virus replication (viral load expressed as log10 plaque forming equivalents)
CCOc1nc2cccc(C(=O)OC(C)OC(=O)OC3CCCCC3)c2n1Cc1ccc(-c2ccccc2-c2nnn[nH]2)cc1 (racemic) [Candesartan cilexetil, (±)-2-Ethoxy-1-[2'-(1 H-tetrazol-5-yl)biphenyl-4-ylmethyl]-1 H-benzimidazole-7-carboxylic acid 1-(cyclohexyloxycarbonyloxy) ethyl ester] | inhibition of virus replication
CCN1CCN(Cc2ccc(-c3cc4c(N[C@H](C)c5ccccc5)ncnc4[nH]3)cc2)CC1 [AEE-788, 6-[4-(4-Ethylpiperazin-1-ylmethyl)phenyl]-N-[1(R)-phenylethyl]-7H-pyrrolo[2,3-d]pyrimidin-4-amine] | inhibition of virus replication
Cn1c(=O)n(-c2ccc(C(C)(C)C#N)cc2)c2c3cc(-c4cnc5ccccc5c4)ccc3ncc21 [Dactolisib, 2-Methyl-2-[4-[3-methyl-2-oxo-8-(3-quinolinyl)-2,3-dihydro-1 H-imidazo[4,5-c]quinolin-1-yl]phenyl]propanenitrile] | inhibition of virus replication
NCCCC[C@H](NC(=O)[C@@H](Cc1cc(Br)c(O)c(Br)c1)NC(=O)N1CCC(N2Cc3ccccc3NC2=O)CC1)C(=O)N1CCN(c2ccncc2)CC1 [Olcegepant, N-[2-[5-Amino-1 (S)-[4-(4-pyridyl)piperazin-1-ylcarbonyl]pentylamino]-1(R)-(3,5-dibromo-4-hydroxybenzyl)-2-oxoethyl]-4-(2-oxo-1,2,3,4-tetrahydroquinazolin-3-yl)piperidine-1-carboxamide] | inhibition of virus replication
CC[C@@H]([C@H](C)O)n1ncn(-c2ccc(N3CCN(c4ccc(OC[C@@H]5CO[C@@](Cn6cncn6)(c6ccc(F)cc6F)C5)cc4)CC3)cc2)c1=O [Posaconazole, 4-[4-[4-[4-[5(R)-(2,4-Difluorophenyl)-5-(1,2,4-triazol-1-ylmethyl)tetrahydrofuran-3(R)-ylmethoxy]phenyl]piperazin-1-yl]phenyl]-2-[1(S)-ethyl-2(S)-hydroxypropyl]-3,4-dihydro-2H-1,2,4-triazol-3-one] | inhibition of virus replication
Cc1cc(/C=C/C#N)cc(C)c1Nc1ccnc(Nc2ccc(C#N)cc2)n1.Cl [Rilpivirine hydrochloride, 4-[4-[4-[(E)-2-Cyanovinyl]-2,6-dimethylphenylamino]pyrimidin-2-ylamino]benzonitrile hydrochloride] | inhibition of virus replication
